Measurements from patent US11168073B2, “3,3-difluoroallylamines or salts thereof and pharmaceutical compositions comprising the same” (YUHAN CORPORATION, priority 2018, dated 2021).
Counter-ions that a name gives are not always drawn. Like-named read-outs stand apart in the source and are kept apart here.

Key:
Assay type in all cases: biochemical
recombinant human VAP-1 = target: T1, recombinant human VAP-1 (Homo sapiens, UniProt Q16853); assay: Activity evaluation on recombinant human VAP-1 (Amplex Red/HRP-coupled hydrogen peroxide assay, benzylamine substrate); settings: read-out: Inhibitory Activity (IC50, nM) human VAP-1
T1 construct: purchased R&D systems
T1 sequence (Q16853 1-763): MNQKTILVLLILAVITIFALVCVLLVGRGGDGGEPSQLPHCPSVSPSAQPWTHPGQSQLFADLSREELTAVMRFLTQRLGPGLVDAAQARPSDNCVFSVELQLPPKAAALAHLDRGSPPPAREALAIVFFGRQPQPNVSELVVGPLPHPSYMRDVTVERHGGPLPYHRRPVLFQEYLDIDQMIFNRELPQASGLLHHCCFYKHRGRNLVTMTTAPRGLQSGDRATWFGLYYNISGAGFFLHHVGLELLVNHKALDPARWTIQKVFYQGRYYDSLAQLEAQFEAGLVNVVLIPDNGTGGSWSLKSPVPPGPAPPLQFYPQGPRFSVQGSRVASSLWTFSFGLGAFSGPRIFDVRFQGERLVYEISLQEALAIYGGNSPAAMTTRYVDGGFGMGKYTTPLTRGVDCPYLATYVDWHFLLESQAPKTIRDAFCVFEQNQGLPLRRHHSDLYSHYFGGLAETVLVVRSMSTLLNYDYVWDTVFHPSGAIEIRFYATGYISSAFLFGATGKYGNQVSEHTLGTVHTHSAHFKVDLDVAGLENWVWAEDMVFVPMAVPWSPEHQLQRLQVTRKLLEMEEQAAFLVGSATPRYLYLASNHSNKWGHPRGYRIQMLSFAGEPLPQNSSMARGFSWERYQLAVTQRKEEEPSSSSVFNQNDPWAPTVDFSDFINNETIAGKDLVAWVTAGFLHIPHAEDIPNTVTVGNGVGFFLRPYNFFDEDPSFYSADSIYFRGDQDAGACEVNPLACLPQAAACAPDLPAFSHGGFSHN
Procedure, shortened: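 Recombinant human VAP-1 in 50 mM sodium phosphate pH 7.4 preincubated 30 min at 37 °C with compound (8-point 1:3 series, <1% DMSO), then 1 mM benzylamine, 200 uM Amplex Red, 1 U/mL HRP added. H2O2-derived resorufin fluorescence (ex 544/em 590) followed 1–2 h; IC50 from four-parameter fit of rate inhibition.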

[1] = target: T2, recombinant human MAO-A (monoamine oxidase-A) (Homo sapiens, UniProt P21397); assay: Activity evaluation on recombinant human MAO-A (Amplex Red/HRP-coupled assay, 0.5 mM tyramine substrate); settings: read-out: Inhibitory Activity (IC50, nM) MAO-A
T2 construct: purchased Sigma-Aldrich
T2 sequence (P21397 1-527): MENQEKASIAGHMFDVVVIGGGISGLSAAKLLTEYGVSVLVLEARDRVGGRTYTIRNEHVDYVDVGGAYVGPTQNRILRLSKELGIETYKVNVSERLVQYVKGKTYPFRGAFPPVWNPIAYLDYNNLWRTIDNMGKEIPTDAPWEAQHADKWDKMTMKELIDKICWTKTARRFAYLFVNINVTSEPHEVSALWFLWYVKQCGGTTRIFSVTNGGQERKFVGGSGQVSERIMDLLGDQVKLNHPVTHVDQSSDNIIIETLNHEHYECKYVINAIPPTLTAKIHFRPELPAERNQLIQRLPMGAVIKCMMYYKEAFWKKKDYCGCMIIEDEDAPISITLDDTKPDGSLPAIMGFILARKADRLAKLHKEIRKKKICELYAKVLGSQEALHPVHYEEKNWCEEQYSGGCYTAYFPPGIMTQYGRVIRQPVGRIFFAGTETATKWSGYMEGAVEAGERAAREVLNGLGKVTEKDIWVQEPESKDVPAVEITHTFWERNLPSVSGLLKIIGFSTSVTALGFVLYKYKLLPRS
Procedure, shortened: (§1)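 Enzyme was preincubated with compounds (8-point 1:3 series, final DMSO <1%) 30 min at 37 °C in 50 mM sodium phosphate pH 7.4, then given 200 uM Amplex Red and 1 U/mL HRP with substrate. H2O2-derived resorufin fluorescence (ex 544/em 590 nm) was followed over 1–2 h; IC50 came from 4-parameter logistic fits of signal-rate inhibition versus DMSO control.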

[2] = target: T3, recombinant human MAO-B (monoamine oxidase-B) (Homo sapiens, UniProt P27338); assay: Activity evaluation on recombinant human MAO-B (Amplex Red/HRP-coupled assay, 1 mM benzylamine substrate); settings: read-out: Inhibitory Activity (IC50, nM) MAO-B
T3 construct: purchased Sigma-Aldrich
T3 sequence (P27338 1-520): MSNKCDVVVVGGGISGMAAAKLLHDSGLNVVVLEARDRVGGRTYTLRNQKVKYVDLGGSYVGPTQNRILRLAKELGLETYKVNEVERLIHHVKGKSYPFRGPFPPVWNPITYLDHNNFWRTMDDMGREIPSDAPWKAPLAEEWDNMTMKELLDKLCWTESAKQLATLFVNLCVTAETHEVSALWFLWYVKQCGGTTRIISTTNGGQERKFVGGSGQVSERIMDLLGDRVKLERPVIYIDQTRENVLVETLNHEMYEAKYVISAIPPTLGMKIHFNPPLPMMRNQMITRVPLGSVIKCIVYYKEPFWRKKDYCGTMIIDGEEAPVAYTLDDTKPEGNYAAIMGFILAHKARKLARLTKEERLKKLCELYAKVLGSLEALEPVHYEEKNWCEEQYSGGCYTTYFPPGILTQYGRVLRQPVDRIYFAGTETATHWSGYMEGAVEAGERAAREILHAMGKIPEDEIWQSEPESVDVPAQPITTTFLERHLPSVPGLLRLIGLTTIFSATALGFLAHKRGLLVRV
Procedure, shortened: as §1

[3] = target: T4, recombinant human DAO (diamine oxidase) (Homo sapiens, UniProt P19801); assay: Activity evaluation on recombinant human DAO (Amplex Red/HRP-coupled assay, 1 mM putrescine substrate); settings: read-out: Inhibitory Activity (IC50, nM) DAO
T4 construct: purchased R&D systems
T4 sequence (P19801 20-751): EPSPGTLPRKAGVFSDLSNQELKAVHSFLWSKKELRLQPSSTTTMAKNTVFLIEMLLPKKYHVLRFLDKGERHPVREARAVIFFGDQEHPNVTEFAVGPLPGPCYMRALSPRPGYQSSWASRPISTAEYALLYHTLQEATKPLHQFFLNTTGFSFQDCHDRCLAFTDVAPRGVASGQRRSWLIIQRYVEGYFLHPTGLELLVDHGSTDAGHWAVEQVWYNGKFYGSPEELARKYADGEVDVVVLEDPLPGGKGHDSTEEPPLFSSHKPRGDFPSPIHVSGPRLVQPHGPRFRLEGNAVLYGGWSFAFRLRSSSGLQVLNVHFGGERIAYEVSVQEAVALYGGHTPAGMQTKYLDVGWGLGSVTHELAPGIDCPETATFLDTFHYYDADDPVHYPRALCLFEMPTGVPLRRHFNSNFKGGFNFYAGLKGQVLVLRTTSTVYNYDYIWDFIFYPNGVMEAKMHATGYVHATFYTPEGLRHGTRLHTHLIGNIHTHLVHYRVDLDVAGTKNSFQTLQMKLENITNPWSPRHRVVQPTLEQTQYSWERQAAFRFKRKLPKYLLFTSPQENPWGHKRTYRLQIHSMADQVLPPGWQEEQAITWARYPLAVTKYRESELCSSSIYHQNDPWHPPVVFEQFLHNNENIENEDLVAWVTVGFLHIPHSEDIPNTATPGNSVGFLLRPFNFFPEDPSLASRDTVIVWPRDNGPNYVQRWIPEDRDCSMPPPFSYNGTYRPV
Procedure, shortened: as §1

[4] = recombinant human VAP-1, benzylamine substrate
[5] = recombinant human VAP-1, 30 min preincubation at 37° C., 1 mM benzylamine

Row | IC50 (recombinant human VAP-1; [4]) | IC50 ([1]; 0.5 mM tyramine substrate) | IC50 ([2]; 1 mM benzylamine substrate) | IC50 ([3]; 1 mM putrescine substrate) | IC50 (recombinant human VAP-1; [5]) | IC50 ([1]; 0.5 mM tyramine) | IC50 ([2]; 1 mM benzylamine) | IC50 ([3]; 1 mM putrescine) | SMILES
1 | 154 nM | > 100000 nM | > 100000 nM | > 100000 nM | – | – | – | – | Cc1cc(-c2ccccc2Cn2cnn(CC(CN)=C(F)F)c2=O)cc2c1NC(=O)CC2 [Example 283, 6-[2-[[1-[2-(aminomethyl)-3,3-difluoro-allyl]-5-oxo-1,2,4-triazol-4-yl]methyl]phenyl]-8-methyl-3,4-dihydro-1H-quinolin-2-one Trifluoroacetate]
2 | – | – | – | – | 0.6 nM | > 100000 nM | 61000 nM | 1900 nM | CCn1cc(-c2ccc(CCn3cnn(CC(CN)=C(F)F)c3=O)s2)cn1 [Example 180, 2-[2-(aminomethyl)-3,3-difluoro-allyl]-4-[2-[5-(1-ethylpyrazol-4-yl)-2-thienyl]ethyl]-1,2,4-triazol-3-one Trifluoroacetate]
3 | 1.5 nM | > 100000 nM | 780 nM | 4000 nM | – | – | – | – | CN1C(=O)CCc2cc(-c3ccc4cc(Cn5cnn(CC(CN)=C(F)F)c5=O)sc4c3)ccc21 [Example 203, 6-[2-[[1-[2-(aminomethyl)-3,3-difluoro-allyl]-5-oxo-1,2,4-triazol-4-yl]methyl]benzothiophen-6-yl]-1-methyl-3,4-dihydroquinolin-2-one Trifluoroacetate]
4 | – | – | – | – | 0.3 nM | > 100000 nM | 67000 nM | 21000 nM | CS(=O)(=O)c1ccc(-c2ccc(Cn3cnn(CC(CN)=C(F)F)c3=O)s2)cc1 [Example 101, 2-[2-(aminomethyl)-3,3-difluoro-allyl]-4-[[5-(4-methylsulfonylphenyl)-2-thienyl]methyl]-1,2,4-triazol-3-one Trifluoroacetate]
5 | – | – | – | – | 0.2 nM | > 100000 nM | > 100000 nM | > 10000 nM | NCC(Cn1ncn(Cc2ccc(-c3ccc4c(c3)CCC(=O)N4)s2)c1=O)=C(F)F [Example 133, 6-[5-[[1-[2-(aminomethyl)-3,3-difluoro-allyl]-5-oxo-1,2,4-triazol-4-yl]methyl]-2-thienyl]-3,4-dihydro-1H-quinolin-2-one Trifluoroacetate]
6 | – | – | – | – | 0.7 nM | > 100000 nM | > 100000 nM | 97000 nM | NCC(Cn1ncn(Cc2ccc(-c3ccn4ncnc4c3)s2)c1=O)=C(F)F [Example 128, 2-[2-(aminomethyl)-3,3-difluoro-allyl]-4-[[5-([1,2,4]triazolo[1,5-a]pyridin-7-yl)-2-thienyl]methyl]-1,2,4-triazol-3-one Trifluoroacetate]
7 | 17 nM | > 100000 nM | > 100000 nM | > 100000 nM | – | – | – | – | CCn1cc(-c2ccccc2Cn2cnn(CC(CN)=C(F)F)c2=O)cn1 [Example 278, 2-[2-(aminomethyl)-3,3-difluoro-allyl]-4-[[2-(1-ethylpyrazol-4-yl)phenyl]methyl]-1,2,4-triazol-3-one trifluoroacetate]

Continued, compound first:

Row | SMILES | IC50 (recombinant human VAP-1; [4]) | IC50 ([1]; 0.5 mM tyramine substrate) | IC50 ([2]; 1 mM benzylamine substrate) | IC50 ([3]; 1 mM putrescine substrate) | IC50 (recombinant human VAP-1; [5]) | IC50 ([1]; 0.5 mM tyramine) | IC50 ([2]; 1 mM benzylamine) | IC50 ([3]; 1 mM putrescine)
8 | Cc1cc(-c2cnn(C(C)C)c2)cnc1-n1cnn(CC(CN)=C(F)F)c1=O [Example 252, 2-[2-(aminomethyl)-3,3-difluoro-allyl]-4-[5-(1-isopropylpyrazol-4-yl)-3-methyl-2-pyridyl]-1,2,4-triazol-3-one Trifluoroacetate] | 1 nM | > 100000 nM | 35000 nM | 17000 nM | – | – | – | –
9 | Cc1cc(-c2ccc3c(c2)OCCN3C)cnc1-n1cnn(CC(CN)=C(F)F)c1=O [Example 223, 2-[2-(aminomethyl)-3,3-difluoro-allyl]-4-[3-methyl-5-(4-methyl-2,3-dihydro-1,4-benzoxazin-7-yl)-2-pyridyl]-1,2,4-triazol-3-one Trifluoroacetate] | 1.5 nM | > 10000 nM | 38000 nM | 37000 nM | – | – | – | –
10 | Cc1cc(-n2cnn(CC(CN)=C(F)F)c2=O)cnc1-c1ccc(C(F)(F)F)nc1 [Example 77, 2-[2-(aminomethyl)-3,3-difluoro-allyl]-4-[5-methyl-6-[6-(trifluoromethyl)-3-pyridyl]-3-pyridyl]-1,2,4-triazol-3-one Trifluoroacetate] | – | – | – | – | 1 nM | > 100000 nM | 1600 nM | 10 nM
11 | NCC(Cn1ncn(-c2ccc(Br)cc2F)c1=O)=C(F)F [Example 5, 2-[2-(aminomethyl)-3,3-difluoro-allyl]-4-(4-bromo-2-fluoro-phenyl)-1,2,4-triazol-3-one Trifluoroacetate] | – | – | – | – | 2.5 nM | > 100000 nM | 4900 nM | 67000 nM
12 | Cc1cc(-n2cnn(CC(CN)=C(F)F)c2=O)cnc1-c1ccc(N(C)C)nc1 [Example 78, 2-[2-(aminomethyl)-3,3-difluoro-allyl]-4-[6-[6-(dimethylamino)-3-pyridyl]-5-methyl-3-pyridyl]-1,2,4-triazol-3-one Trifluoroacetate] | – | – | – | – | 0.6 nM | > 100000 nM | 9800 nM | 57 nM
13 | NCC(Cn1ncn(-c2ccnc(Br)c2)c1=O)=C(F)F [Example 10, 2-[2-(aminomethyl)-3,3-difluoro-allyl]-4-(2-bromo-4-pyridyl)-1,2,4-triazol-3-one Trifluoroacetate] | – | – | – | – | 7.7 nM | > 100000 nM | > 100000 nM | 1200 nM
